BindingDB's records for doi:10.1021/jm9701583 (R.W. Johnson Pharmaceutical Research Institute, 1997)

target: DNA gyrase (Escherichia coli); assay: Inhibition of supercoiling activity of DNA gyrase in Escherichia coli

| IC50 | SMILES |
| --- | --- |
| 1360 µM | CC(c1ccc2c(c1)Nc1ccccc1S2)N(O)C(=O)c1ccccc1-c1ccccc1C(=O)O (stereo unspecified) |
| > 1100 µM | COc1cc(C(C)N(O)C(=O)c2ccccc2-c2ccccc2C(=O)O)cc(OC)c1OC (stereo unspecified) |
| 121 µM | CC(c1ccc2oc(-c3ccccc3)cc2c1)N(O)C(=O)c1ccccc1-c1ccccc1C(=O)O (stereo unspecified) |
| 205 µM | CC(c1ccc2c(ccc3ccccc32)c1)N(O)C(=O)c1ccccc1-c1ccccc1C(=O)O (stereo unspecified) |
| > 1380 µM | CC(c1ccccc1)N(O)C(=O)c1ccccc1-c1ccccc1C(=O)O (stereo unspecified) |
| > 958 µM | CC(c1ccc(N2CCN(c3ccccc3)CC2)cc1)N(O)C(=O)c1ccccc1-c1ccccc1C(=O)O (stereo unspecified) |
